Results taken from patent publication US20070092939A1, “HUMAN IMMUNODEFICIENCY VIRUS ENTRY INHIBITOR ASSAY” (priority 2003, published 2007).

System: co-cultivation-induced fusion between HL2/3 and HeLa-CD4-LTR-β-gal cells
Experiment: Cell fusion assay by co-cultivation of HL2/3 and HeLa-CD4-LTR-β-gal cells, β-galactosidase chemiluminescence readout
Type: cell-based
Conditions: for Response Chemiluminescence / Response Inhibition (%): Table 1; for Chemiluminescence / Inhibition: Table 2 specificity test
Method: Depending on the culture vessel (T75 or T175), 0.5−2.0×10^6 HL2/3 or HeLa-CD4-LTR-β-gal cells were seeded into their respective Propagation Medium (for HL2/3, DMEM containing 10% FBS and 0.5 mg/ml G418; for HeLa-CD4-LTR-β-gal, DMEM containing 10% FBS, 0.2 mg/ml G418, and 0.1 mg/ml hygromycin B). Culture at 37° C. with 95% air/5% CO2 until the cultures reach 60% confluency, but can not exceed 95% confluency.
Remove medium by aspiration with 2-ml of glass pipette. Add 5 ml (for T75 flask) or 10 ml (for T175 flask) of the cell dissociation buffer (CDB). Incubate at room temperature for at least 20 minutes. While waiting, prepare potential entry inhibitor (e.g. TNX-355) with cold Assay Medium (DMEM supplemented with 10% FBS) for treatment. Harvest cells in a 15-ml (for T75) or 50-ml (for T175) conical centrifuge tube by repeated pipetting. Determine cell density and viability in 100 μl of samples with Trypan Blue Exclusion method. Centrifuge at 1000 rpm (or 201×g) for 5 minutes. Discard supernatant and resuspend cells in pre-warmed Assay Medium at a cell density of 1×10^6 cells/ml (for HeLa-CD4-LTR-β-gal cells) or 2×10^6 cells/ml (for HL2/3 cells).
Further dilute HeLa-CD4-LTR-β-gal cells to 0.25×10^6 cells/ml with pre-warmed Assay Medium, and pipette 90 μl to each well of a 96-well clear-bottom white-wall plate using a 12-channel pipet. Add 20 μl of drug or medium to each well as needed. Further dilute HL2/3 cells to 0.5×10^6 cells/ml with pre-warmed Assay Medium, and pipette 90 μl to each well of a 96-well clear-bottom white-wall plate using a 12-channel pipet. Total cells in each well is 6.75×10^4 cells at a ratio of 2:1 (HL2/3 to HeLa-CD4-LTR-β-gal cells). Culture cells at 37° C. with 95% air/5% CO2 for about 24 hours.
Remove the medium row by row, immediately followed by addition of 50 μl/well of Lysis Solution (Roche Lysis Buffer containing protease inhibitors). Incubate for 60 minutes at 15-25° C. with mild shaking (200-300 rpm). While waiting, dilute 1 volume of concentrated substrate with 99 volumes of Reaction Buffer to make working substrate solution.
Add 100 μl of the substrate reagent to each well row by row using 12-channel pipette. Incubate for 90 minutes at room temperature with mild shaking (200-300 rpm). While waiting, bring proper volume of Accelerator II solution to room temperature. Add 50 μl of the Accelerator II to each well row by row using 12-channel pipette. Measure light emission with a microplate luminometer. The chemiluminescence readout is reported as light units per second.
The inhibition of HIV entry inhibitors, including TNX-355, T20, SIM.4, and sCD4, was tested on the co-cultivation-induced fusion between the two cell lines (HL2/3 to HeLa-CD4-LTR-β-gal cells). TNX-355 is a humanized anti-CD4 domain 2 antibody, T20 a synthetic oligopeptide mimicking the […] HR-2 region, SIM.4 a monoclonal anti-CD4 domain 1 antibody, and sCD4 is a soluble extracellular portion of CD4 molecule. Multiple levels of each reagent were tested following the procedures described in the Materials and Methods.
Assay specificity was addressed by comparing the inhibitory activity of TNX-355 to those of two structurally similar but functionally irrelevant antibodies. These antibodies are TNX-224 (a humanized antibody IgG4 which differs in complementary determining regions (CDR) but share a majority of sequence homology to TNX-355) and TNX-901 (a humanized antibody IgG1).

**Q.** How did the “Response Chemiluminescence” value (reagent 0.1 ng/ml) turn out when “TNX-355: humanized anti-CD4 domain 2 antibody, IgG4” was run?
**A.** Its value is 39185 ± 1260.79 light units per second.

**Q.** And the “Response Inhibition (%)” value (reagent 0.1 ng/ml)?
**A.** Its value is 23.2%.

**Q.** What about the “Response Chemiluminescence” value (reagent 10 ng/ml) of the same molecule?
**A.** Its value is 34525 ± 2281.39 light units per second.

**Q.** And the “Response Inhibition (%)” value (reagent 10 ng/ml)?
**A.** The value was 33.7%.

**Q.** What about the “Response Chemiluminescence” value (reagent 25 ng/ml) of the same molecule?
**A.** Its value is 29152 ± 2492.87 light units per second.

**Q.** What about the “Response Inhibition (%)” value (reagent 25 ng/ml) of the same molecule?
**A.** The value was 45.8%.

**Q.** What about the “Response Chemiluminescence” value (reagent 50 ng/ml) of the same molecule?
**A.** The value was 23993 ± 650.74 light units per second.

**Q.** And the “Response Inhibition (%)” value (reagent 50 ng/ml)?
**A.** The value was 57.3%.

**Q.** What about the “Response Chemiluminescence” value (reagent 100 ng/ml) of the same molecule?
**A.** The value was 18724 ± 989.73 light units per second.

**Q.** And the “Response Inhibition (%)” value (reagent 100 ng/ml)?
**A.** The value was 69.2%.

**Q.** What about the “Response Chemiluminescence” value (reagent 200 ng/ml) of the same molecule?
**A.** Its value is 12312 ± 1516.60 light units per second.

**Q.** And the “Response Inhibition (%)” value (reagent 200 ng/ml)?
**A.** Its value is 83.5%.

**Q.** And the “Response Chemiluminescence” value (reagent 1000 ng/ml)?
**A.** Its value is 6896 ± 383.09 light units per second.

**Q.** And the “Response Inhibition (%)” value (reagent 1000 ng/ml)?
**A.** The value was 95.7%.

**Q.** What about the “Response Inhibition (%)” value (reagent 10000 ng/ml) of the same molecule?
**A.** The value was 100.0%.

**Q.** What about the “Response Chemiluminescence” value (reagent 10000 ng/ml, about 24 hours co-cultivation) of the same molecule?
**A.** The value was 4978 ± 669.32 light units per second.

**Q.** And the Chemiluminescence (antibody amount 0.025 μg/ml)?
**A.** The Chemiluminescence was 34121 ± 714.43 light units per second.

**Q.** And the Inhibition (antibody amount 0.025 μg/ml)?
**A.** Its Inhibition is 20%.

**Q.** And the Chemiluminescence (antibody amount 1.0 μg/ml)?
**A.** Its Chemiluminescence is 5135 ± 432.41 light units per second.

**Q.** And the Inhibition (antibody amount 1.0 μg/ml)?
**A.** The Inhibition was 88%.

B1: TNX-901: humanized antibody IgG1; functionally irrelevant control (antibody, chains of the INN, looked up, V domains shown)
VH: QVQLVQSGAEVKKPGASVKVSCKASGYTFSMYWLEWVRQAPGHGLEWVGEISPGTFTTNYNEKFKARATFTADTSTNTAYMELSSLRSEDTAVYYCARFSHFSGSNYDYFDYWGQGTLVTVSS
VL: DILLTQSPGTLSLSPGERATLSCRASQSIGTNIHWYQQKPGQAPRLLIKYASESISGIPSRFSGSGSGTDFTLTISRLEPEDFAMYYCQQSDSWPTTFGQGTKVEIK
**Q.** What does the source list for B1?
**A.** Chemiluminescence (antibody amount 0.025 μg/ml): 42629 ± 664.10 light units per second; Inhibition (antibody amount 0.025 μg/ml): 0%; Chemiluminescence (antibody amount 10 μg/ml): 42847 ± 1429.78 light units per second; Inhibition (antibody amount 10 μg/ml): 0%
